Test results: US20260166128A1, “HUMAN AMYLIN ANALOG, AND DERIVATIVE THEREOF AND USE THEREOF” (priority 2022, published 2026)
Numbered stars: 1 amine (or outer) side, 2 acyl side, 3 side chain; on linkers, the order of the positions; unused ones are H or OH. Bridge positions count the residues as written; N and C are the ends. Square brackets hold non-standard residues; d marks the D form. Side chains are listed from the residue outwards. Peptide text beside a SMILES is read from it. * marks the point of attachment. C20 diacid = O=C(O)CCCCCCCCCCCCCCCCCCC(=O)*; γGlu = O=C(O)[C@H](CCC(=O)[*:2])N[*:1]; Hyp = O=C(O)[C@@H]1C[C@@H](O)CN1; hArg = N=C(N)NCCCC[C@H](N)C(=O)O; Orn = NCCC[C@H](N)C(=O)O; Dab = NCC[C@H](N)C(=O)O

Biological target: T1, human amylin receptor (Homo sapiens, UniProt O60896+P30988)
T1 construct: host or cells: CHO-K1/Ga15/AMY3 cells, further stably transfected with a CRE-luciferase plasmid
T1 sequence (P30988 25-474): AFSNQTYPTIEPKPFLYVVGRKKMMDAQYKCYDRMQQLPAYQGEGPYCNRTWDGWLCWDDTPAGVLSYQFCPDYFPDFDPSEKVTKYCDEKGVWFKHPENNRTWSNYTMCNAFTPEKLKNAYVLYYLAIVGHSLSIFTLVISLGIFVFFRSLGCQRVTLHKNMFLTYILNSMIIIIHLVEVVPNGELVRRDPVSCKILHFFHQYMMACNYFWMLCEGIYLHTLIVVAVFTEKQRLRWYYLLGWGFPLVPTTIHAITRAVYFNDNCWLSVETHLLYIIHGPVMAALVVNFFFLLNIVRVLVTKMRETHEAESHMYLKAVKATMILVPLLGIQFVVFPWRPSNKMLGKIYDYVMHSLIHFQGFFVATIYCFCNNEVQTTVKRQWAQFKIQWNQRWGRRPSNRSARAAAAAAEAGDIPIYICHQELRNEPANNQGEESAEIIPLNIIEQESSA
T1 sequence (O60896 24-148 partner): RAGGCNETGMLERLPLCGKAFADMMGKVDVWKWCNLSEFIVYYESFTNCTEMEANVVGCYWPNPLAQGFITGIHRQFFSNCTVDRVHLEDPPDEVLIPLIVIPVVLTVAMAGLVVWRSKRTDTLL
Assay: Luciferase assay of amylin derivatives in amylin receptor/CRE-luc CHO cell line
Assay type: cell-based
Details: CHO-K1/Ga15/AMY3 CRE-luc cells, 24 hours incubation, F12 medium containing 10% FBS; read-out: EC50
Description: The experiment was intended to detect the activity or efficacy of the amylin derivatives on a human amylin receptor in vitro by luciferase assay.
50 μL of growth medium (F12 medium containing 10% FBS) was added into each well of a white 96-well plate, and the stably transfected amylin/CRE-lue CHO cells were inoculated into the white 96-well plate at a density of about 20,000 cells/well for activity determination.

Structure (SMILES) | EC50 [nM]
CC[C@H](C)[C@H](NC(=O)[C@@H]1CCCN1C(=O)[C@H](CCCCNC(=O)CC[C@H](NC(=O)CCCCCCCCCCCCCCCCCCC(=O)O)C(=O)O)NC(=O)[C@H](CC(C)C)NC(=O)[C@H](CC(N)=O)NC(=O)[C@H](CC(N)=O)NC(=O)[C@H](CO)NC(=O)[C@H](CO)NC(=O)[C@H](Cc1c[nH]cn1)NC(=O)[C@H](CCCNC(=N)N)NC(=O)[C@H](CC(C)C)NC(=O)[C@H](Cc1ccccc1)NC(=O)[C@H](CC(=O)O)NC(=O)[C@H](C)NC(=O)[C@H](CC(C)C)NC(=O)[C@H](CCCNC(=N)N)NC(=O)[C@H](CCC(N)=O)NC(=O)[C@@H](NC(=O)[C@H](C)NC(=O)[C@@H]1CSSC[C@H](NC(=O)[C@@H](N)CCN)C(=O)N[C@@H](CC(N)=O)C(=O)N[C@@H]([C@@H](C)O)C(=O)N[C@@H](C)C(=O)N[C@@H]([C@@H](C)O)C(=O)N1)[C@@H](C)O)C(=O)N[C@@H](CC(C)C)C(=O)N1CCC[C@H]1C(=O)N1CCC[C@H]1C(=O)N[C@H](C(=O)N[C@@H](CC(N)=O)C(=O)N[C@H](C(=O)NCC(=O)N[C@@H](CO)C(=O)N[C@@H](CC(N)=O)C(=O)N[C@H](C(=O)N1C[C@H](O)C[C@H]1C(N)=O)[C@@H](C)O)C(C)C)[C@@H](C)O [PD074] (H-[Dab]CNTATCATQRLADFLRHSSNNLK([γGlu-C20 diacid])PILPPTNVGSNT[Hyp]-NH2; disulfide 2-7) | 0.066
CC[C@H](C)[C@H](NC(=O)[C@@H]1CCCN1C(=O)[C@H](CCCCNC(=O)CC[C@H](NC(=O)CCCCCCCCCCCCCCCCCCC(=O)O)C(=O)O)NC(=O)[C@H](CC(C)C)NC(=O)[C@H](CC(N)=O)NC(=O)[C@H](CC(N)=O)NC(=O)[C@H](CO)NC(=O)[C@H](CO)NC(=O)[C@H](Cc1c[nH]cn1)NC(=O)[C@H](CCCNC(=N)N)NC(=O)[C@H](CC(C)C)NC(=O)[C@H](Cc1ccccc1)NC(=O)[C@H](CC(=O)O)NC(=O)[C@H](C)NC(=O)[C@H](CC(C)C)NC(=O)[C@H](CCCNC(=N)N)NC(=O)[C@H](CCC(N)=O)NC(=O)[C@@H](NC(=O)[C@H](C)NC(=O)[C@@H]1CSSC[C@H](NC(=O)[C@@H](N)CCCN)C(=O)N[C@@H](CC(N)=O)C(=O)N[C@@H]([C@@H](C)O)C(=O)N[C@@H](C)C(=O)N[C@@H]([C@@H](C)O)C(=O)N1)[C@@H](C)O)C(=O)N[C@@H](CC(C)C)C(=O)N1CCC[C@H]1C(=O)N1CCC[C@H]1C(=O)N[C@H](C(=O)N[C@@H](CC(N)=O)C(=O)N[C@H](C(=O)NCC(=O)N[C@@H](CO)C(=O)N[C@@H](CC(N)=O)C(=O)N[C@H](C(=O)N1C[C@H](O)C[C@H]1C(N)=O)[C@@H](C)O)C(C)C)[C@@H](C)O [PD075] (H-[Orn]CNTATCATQRLADFLRHSSNNLK([γGlu-C20 diacid])PILPPTNVGSNT[Hyp]-NH2; disulfide 2-7) | 0.048
CC[C@H](C)[C@H](NC(=O)[C@@H]1CCCN1C(=O)[C@H](CCCCNC(=O)CC[C@H](NC(=O)CCCCCCCCCCCCCCCCCCC(=O)O)C(=O)O)NC(=O)[C@H](CC(C)C)NC(=O)[C@H](CC(N)=O)NC(=O)[C@H](CC(N)=O)NC(=O)[C@H](CO)NC(=O)[C@H](CO)NC(=O)[C@H](Cc1c[nH]cn1)NC(=O)[C@H](CCCNC(=N)N)NC(=O)[C@H](CC(C)C)NC(=O)[C@H](Cc1ccccc1)NC(=O)[C@H](CC(=O)O)NC(=O)[C@H](C)NC(=O)[C@H](CC(C)C)NC(=O)[C@H](CCCNC(=N)N)NC(=O)[C@H](CCC(N)=O)NC(=O)[C@@H](NC(=O)[C@H](C)NC(=O)[C@@H]1CSSC[C@H](NC(=O)[C@@H](N)CCCCN)C(=O)N[C@@H](CC(N)=O)C(=O)N[C@@H]([C@@H](C)O)C(=O)N[C@@H](C)C(=O)N[C@@H]([C@@H](C)O)C(=O)N1)[C@@H](C)O)C(=O)N[C@@H](CC(C)C)C(=O)N1CCC[C@H]1C(=O)N1CCC[C@H]1C(=O)N[C@H](C(=O)N[C@@H](CC(N)=O)C(=O)N[C@H](C(=O)NCC(=O)N[C@@H](CO)C(=O)N[C@@H](CC(N)=O)C(=O)N[C@H](C(=O)N1C[C@H](O)C[C@H]1C(N)=O)[C@@H](C)O)C(C)C)[C@@H](C)O [PD076] (H-KCNTATCATQRLADFLRHSSNNLK([γGlu-C20 diacid])PILPPTNVGSNT[Hyp]-NH2; disulfide 2-7) | 0.04
CC[C@H](C)[C@H](NC(=O)[C@@H]1CCCN1C(=O)[C@H](CCCCNC(=O)CC[C@H](NC(=O)CCCCCCCCCCCCCCCCCCC(=O)O)C(=O)O)NC(=O)[C@H](CC(C)C)NC(=O)[C@H](CC(N)=O)NC(=O)[C@H](CC(N)=O)NC(=O)[C@H](CO)NC(=O)[C@H](CO)NC(=O)[C@H](Cc1c[nH]cn1)NC(=O)[C@H](CCCNC(=N)N)NC(=O)[C@H](CC(C)C)NC(=O)[C@H](Cc1ccccc1)NC(=O)[C@H](CC(=O)O)NC(=O)[C@H](C)NC(=O)[C@H](CC(C)C)NC(=O)[C@H](CCCNC(=N)N)NC(=O)[C@H](CCC(N)=O)NC(=O)[C@@H](NC(=O)[C@H](C)NC(=O)[C@@H]1CSSC[C@H](NC(=O)[C@@H](N)CCCCNC(=N)N)C(=O)N[C@@H](CC(N)=O)C(=O)N[C@@H]([C@@H](C)O)C(=O)N[C@@H](C)C(=O)N[C@@H]([C@@H](C)O)C(=O)N1)[C@@H](C)O)C(=O)N[C@@H](CC(C)C)C(=O)N1CCC[C@H]1C(=O)N1CCC[C@H]1C(=O)N[C@H](C(=O)N[C@@H](CC(N)=O)C(=O)N[C@H](C(=O)NCC(=O)N[C@@H](CO)C(=O)N[C@@H](CC(N)=O)C(=O)N[C@H](C(=O)N1C[C@H](O)C[C@H]1C(N)=O)[C@@H](C)O)C(C)C)[C@@H](C)O [PD077] (H-[hArg]CNTATCATQRLADFLRHSSNNLK([γGlu-C20 diacid])PILPPTNVGSNT[Hyp]-NH2; disulfide 2-7) | 0.034
CC[C@H](C)[C@H](NC(=O)[C@@H]1CCCN1C(=O)[C@H](CCCCNC(=O)CC[C@H](NC(=O)CCCCCCCCCCCCCCCCCCC(=O)O)C(=O)O)NC(=O)[C@H](CC(C)C)NC(=O)[C@H](CC(N)=O)NC(=O)[C@H](CC(N)=O)NC(=O)[C@H](CO)NC(=O)[C@H](CO)NC(=O)[C@H](Cc1c[nH]cn1)NC(=O)[C@H](CCCNC(=N)N)NC(=O)[C@H](CC(C)C)NC(=O)[C@H](Cc1ccccc1)NC(=O)[C@H](CC(=O)O)NC(=O)[C@H](C)NC(=O)[C@H](CC(C)C)NC(=O)[C@H](CCCNC(=N)N)NC(=O)[C@H](CCC(N)=O)NC(=O)[C@@H](NC(=O)[C@H](C)NC(=O)[C@@H]1CSSC[C@H](NC(=O)[C@@H](N)Cc2c[nH]cn2)C(=O)N[C@@H](CC(N)=O)C(=O)N[C@@H]([C@@H](C)O)C(=O)N[C@@H](C)C(=O)N[C@@H]([C@@H](C)O)C(=O)N1)[C@@H](C)O)C(=O)N[C@@H](CC(C)C)C(=O)N1CCC[C@H]1C(=O)N1CCC[C@H]1C(=O)N[C@H](C(=O)N[C@@H](CC(N)=O)C(=O)N[C@H](C(=O)NCC(=O)N[C@@H](CO)C(=O)N[C@@H](CC(N)=O)C(=O)N[C@H](C(=O)N1C[C@H](O)C[C@H]1C(N)=O)[C@@H](C)O)C(C)C)[C@@H](C)O [PD078] (H-HCNTATCATQRLADFLRHSSNNLK([γGlu-C20 diacid])PILPPTNVGSNT[Hyp]-NH2; disulfide 2-7) | 0.035
